The text below walks through data of ChEMBL document CHEMBL1201862, “PubChem BioAssay data set” (2004).

Among the test systems are CCRF-CEM; HCC 2998; Hs-578T; MDA-MB-231; MDA-N; MOLT-4; NCI-H226; NCI-H460; NCI-H522; OVCAR-3; OVCAR-5; RXF 393; SF-295; SF-539; SK-MEL-2; SN12C; SW-620; T47D; SK-OV-3; TK-10.
Assay in all cases: NCI-60 cell line screen, 48 h

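Compound exposure: 48 hours, 5 concentrations, 96-well plates. At the GI50, growth is halved.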 Active and inactive are the calls of the source. Cut-off read from the data, not from the text of the source: active = GI50 up to about 1.1 µM and inactive = higher.

With `O=c1cc(-c2ccccc2)c2ccc(O)c(CN(CCCl)CCCl)c2o1`, the GI50 in the test on CCRF-CEM was 3.07 µM (inactive); with HCC 2998, 12.3 µM (inactive); in the test on Hs-578T, 24.9 µM (inactive); with MDA-MB-231, 15.7 µM (inactive); with MDA-N it was 17.6 µM (inactive); in the test on MOLT-4, 5.75 µM (inactive). Further, the GI50 with NCI-H226 is 17.9 µM (inactive); in the test on NCI-H460, 17.8 µM (inactive); with NCI-H522 it was 14.7 µM (inactive); in the test with OVCAR-3, 19.3 µM (inactive); in the test with OVCAR-5 it was 17.8 µM (inactive); in the test with RXF 393, 14 µM (inactive). The GI50 in the test with SF-295 was 11 µM (inactive); with SF-539 it was 20.3 µM (inactive); with SK-MEL-2, 22.8 µM (inactive); with SN12C it was 17.2 µM (inactive); with SW-620, 18.8 µM (inactive); in the test on T47D it was 23.4 µM (inactive).

In the case of `Nc1cc2c(nc3c4ccccc4c(N)cc3[n+]2-c2cccc3ccccc23)c2ccccc12.Nc1cc2c(nc3c4ccccc4ccc3[n+]2-c2cccc3ccccc23)c2ccccc12`, the GI50 was 0.229 µM (active) in the test with CCRF-CEM; 1.17 µM (inactive) in the test with Hs-578T; 0.276 µM (active) in the test with MDA-MB-231; 1.87 µM (inactive) with MDA-N; 0.75 µM (active) in the test with MOLT-4; 12.2 µM (inactive) in the test with NCI-H226. Also, the GI50 in the test with NCI-H460 is 0.377 µM (active); with NCI-H522, 1.25 µM (inactive); in the test with OVCAR-3 it was 0.593 µM (active); with OVCAR-5, 7.28 µM (inactive); with RXF 393, 2.45 µM (inactive); in the test with SF-295, 2.2 µM (inactive). For the same compound, the GI50 in the test on SF-539 was 7.74 µM (inactive); in the test with SK-MEL-2 it was 1.57 µM (inactive); with SK-OV-3, 4.32 µM (inactive); in the test on SN12C it was 2.49 µM (inactive); with SW-620 it was 1.55 µM (inactive); in the test with T47D it was 0.687 µM (active). In addition, the GI50 in the test on TK-10 is 0.893 µM (active).

Consider `CCCCSc1n/c(=C\c2ccc(N(C)C)cc2)c2nnnn12`, for which the GI50 with HCC 2998, with Hs-578T, with MDA-MB-231, with MDA-N, in the test on MOLT-4 and in the test on NCI-H226 was > 100 µM (inactive) in each case. The GI50 in the test on NCI-H460, in the test with NCI-H522, with OVCAR-3, with OVCAR-5, with RXF 393 and in the test with SF-295 was > 100 µM (inactive) each time. For the same compound, the GI50 in the test with SF-539, in the test with SK-MEL-2, with SK-OV-3, in the test with SN12C, in the test on SW-620 and with T47D was > 100 µM (inactive) throughout. For the same compound, the GI50 in the test on TK-10 is > 100 µM (inactive).

`COc1cc(C(=O)O)c([N+](=O)[O-])c(OC)c1OC`: the GI50 in the test on HCC 2998, in the test on Hs-578T, with MDA-MB-231, in the test on MDA-N, in the test with MOLT-4 and with NCI-H226 was > 100 µM (inactive) in each case. Further, the GI50 was > 100 µM (inactive) in the test on NCI-H460; > 100 µM (inactive) with NCI-H522; > 100 µM (inactive) in the test with OVCAR-3; 63.2 µM (inactive) in the test on OVCAR-5; > 100 µM (inactive) with RXF 393; > 100 µM (inactive) with SF-295. The GI50 with SF-539, in the test on SK-MEL-2, in the test with SK-OV-3, with SN12C, in the test with SW-620 and in the test on T47D was > 100 µM (inactive) in each case. In addition, the GI50 in the test with TK-10 is > 100 µM (inactive).

As to `Cc1ccc(/C(C#N)=C/c2cccc([N+](=O)[O-])c2)cc1`, the GI50 in the test with HCC 2998 is > 100 µM (inactive); in the test on Hs-578T, 27.4 µM (inactive); with MDA-MB-231, 19.2 µM (inactive); with MDA-N, > 100 µM (inactive); with NCI-H226, > 100 µM (inactive); in the test with NCI-H460, > 100 µM (inactive). The GI50 was > 100 µM (inactive) in the test on NCI-H522; > 100 µM (inactive) in the test with OVCAR-3; > 100 µM (inactive) in the test with OVCAR-5; 19.3 µM (inactive) in the test on RXF 393; 24.4 µM (inactive) in the test on SF-295; 46.5 µM (inactive) with SF-539. For the same compound, the GI50 in the test on SK-MEL-2 was 51.9 µM (inactive); with SK-OV-3, 61.9 µM (inactive); in the test with SN12C, > 100 µM (inactive); in the test with SW-620 it was > 100 µM (inactive); in the test on T47D it was > 100 µM (inactive); with TK-10 it was 92.5 µM (inactive).

`CC(C)(C)NCC(O)c1ccc(O)c(CO)n1` (centres undefined): the GI50 with HCC 2998, in the test with Hs-578T, in the test on MDA-MB-231, with MDA-N, in the test with MOLT-4 and with NCI-H226 was > 100 µM (inactive) in each case. For the same compound, the GI50 in the test on NCI-H460, in the test on NCI-H522, with OVCAR-3, in the test with OVCAR-5, in the test with RXF 393 and in the test on SF-295 was > 100 µM (inactive) throughout. The GI50 in the test on SF-539, in the test on SK-MEL-2, in the test with SK-OV-3, with SN12C, with SW-620 and in the test with T47D was > 100 µM (inactive) throughout. The GI50 in the test with TK-10 was > 100 µM (inactive).

Take `Cc1nc2ccccc2n1Cc1nnc(N)o1`: the GI50 with CCRF-CEM, with HCC 2998, in the test on Hs-578T, with MDA-MB-231, with MDA-N and in the test with MOLT-4 was > 100 µM (inactive) throughout. Moreover, the GI50 in the test on NCI-H460, with NCI-H522, with OVCAR-3, in the test with OVCAR-5, with RXF 393 and in the test on SF-295 was > 100 µM (inactive) each time. Moreover, the GI50 in the test on SF-539, in the test on SK-MEL-2, in the test on SK-OV-3, in the test with SN12C, in the test on SW-620 and in the test on T47D was > 100 µM (inactive) in each case. For the same compound, the GI50 in the test on TK-10 was > 100 µM (inactive).

Turning to `CC(N/N=C(\S)N1CCN(c2ccccn2)CC1)c1cccc[n+]1[O-]` (centres undefined), the GI50 with CCRF-CEM is 1.98 µM (inactive); with HCC 2998, 21.1 µM (inactive); in the test with Hs-578T it was 85.7 µM (inactive); with MDA-MB-231 it was 19 µM (inactive); in the test with MDA-N it was 18.4 µM (inactive); in the test with MOLT-4 it was 2.58 µM (inactive). The GI50 is 34.9 µM (inactive) in the test with NCI-H226; 5.31 µM (inactive) in the test with NCI-H460; 2.12 µM (inactive) with NCI-H522; 4.9 µM (inactive) in the test with OVCAR-3; 16.2 µM (inactive) in the test with RXF 393; 12.3 µM (inactive) in the test with SF-295. Further, the GI50 is 17.4 µM (inactive) in the test on SF-539; 23.6 µM (inactive) in the test on SN12C; 4.85 µM (inactive) in the test with SW-620; 77.1 µM (inactive) in the test with T47D; 32 µM (inactive) with TK-10.

For `C=C(C)[C@@]1(O)CCCC[C@@H]1CC(Sc1ccccc1)Sc1ccccc1`, the GI50 in the test with CCRF-CEM is 23.4 µM (inactive); in the test on HCC 2998, 16.5 µM (inactive); with Hs-578T, 15.7 µM (inactive); in the test on MDA-MB-231, 17.1 µM (inactive); in the test on MDA-N, 20 µM (inactive); with MOLT-4, 9.08 µM (inactive). The GI50 with NCI-H226 is 16.3 µM (inactive); in the test on NCI-H460, 13.9 µM (inactive); with NCI-H522, 11.7 µM (inactive); with OVCAR-5, 16.3 µM (inactive); in the test on RXF 393 it was 13.4 µM (inactive); in the test with SF-295, 16.6 µM (inactive). Moreover, the GI50 in the test with SK-MEL-2 is 12.8 µM (inactive); in the test with SK-OV-3, 19.6 µM (inactive); in the test on SN12C it was 16.4 µM (inactive); with T47D it was 12.4 µM (inactive); with TK-10 it was 15.5 µM (inactive).

As to `CC(CCC(=O)O)(c1ccc(O)cc1)c1ccc(O)cc1`, the GI50 with Hs-578T, with MDA-MB-231, in the test on MDA-N, in the test on MOLT-4, in the test on NCI-H226 and with NCI-H460 was > 100 µM (inactive) throughout. In addition, the GI50 in the test on NCI-H522, in the test with OVCAR-3, with OVCAR-5, in the test with RXF 393, in the test on SF-295 and in the test on SK-MEL-2 was > 100 µM (inactive) in each case. In addition, the GI50 in the test on SN12C, with SW-620, with T47D and with TK-10 was > 100 µM (inactive) throughout.

On to `CCOC(=O)C1=C(C)N(c2ccc(Cl)cc2)C2(O)C=CC(=O)C3C(=O)N(c4ccccc4)C(=O)C132` (centres undefined), for which the GI50 in the test with CCRF-CEM was 0.476 µM (active); with Hs-578T, 2.39 µM (inactive); in the test on MDA-MB-231, 2.09 µM (inactive); in the test on MDA-N it was 2.35 µM (inactive); in the test on MOLT-4, 1.6 µM (inactive); in the test with NCI-H460, 2.3 µM (inactive). The GI50 was 1.1 µM (active) in the test on NCI-H522; 1.28 µM (inactive) in the test on OVCAR-3; 2.01 µM (inactive) in the test with OVCAR-5; 1.76 µM (inactive) with RXF 393; 2.19 µM (inactive) in the test with SF-295; 2.27 µM (inactive) in the test with SF-539. The GI50 is 1.78 µM (inactive) in the test with SK-MEL-2; 2.4 µM (inactive) in the test on SK-OV-3; 2.3 µM (inactive) in the test with SN12C; 1.54 µM (inactive) in the test on SW-620; 2.3 µM (inactive) in the test on T47D; 1.8 µM (inactive) in the test with TK-10.
